Measurements: patent EP0799614A1, “REMEDY FOR ISCHEMIC DISEASES” (CHUGAI SEIYAKU KABUSHIKI KAISHA, priority 1994, dated 1996)
Read-outs that look alike come from different tables or passages of the source.

Assays:
thoracic aorta = test: Vasorelaxing action in vitro: relaxation of 30 mM K+ contraction of aortic rings; type: cell-based, Sprague-Dawley (Crj) male rat; details: contraction at 30 mM K+ taken as 100%
Experimental: The thoracic aorta was excised from a Sprague-Dawley (Crj) male rat weighing between 350 and 550 g, and dissected free from surrounding connective tissue. The vessel was cut into a ring having a width of 2 to 3 mm. The resulting preparation was mounted for isometric tension recording in an organ bath filled with 10 ml of a Krebs-Henseleit solution (K-H solution, pH 7.4, 37°C), which was bubbled with 95% 02/5% CO2. Isometric tension changes were monitored with an isometric tranducer (TB-611T, manufactured by Nihon Kohden Corp.). Before starting the experiment, the preparation was given a stretched tension of 2 g and allowed to equilibrate for 30 minutes (the K-H solution was exchanged for a fresh one every 15 minutes). At first, the preparation was precontracted by changing the solution in the bath to one containing 30 mM K^+. After the contraction was maintained for 20 minutes, the preparation was washed with K-H solution. Sixty minutes thereafter (the K-H solution was exchanged with a fresh one every 20 minutes), contraction was again induced in the same manner as described above. […]

[1] = tested on: Isolated ventricular myocytes; test: Inhibitory action on calcium overload in vitro, Method B: veratridine-treated myocytes; type: cell-based, male Sprague-Dawley rat; details: veratridine 50 µg/ml, read-out: Concentration at Which Cells Survived Almost Completely
Experimental: (§1) Isolated ventricular myocytes were prepared from the heart of male Sprague-Dawley rat weighing 300 to 500 g, using an enzyme-perfusion method. […]
The efficacy was evaluated in the same manner as in Method A, except for using 50 µg/ml of veratridine in place of veratrine (100 µg/ml).

[2] = tested on: Isolated ventricular myocytes; test: Inhibitory action on calcium overload in vitro, Method A: veratrine-treated myocytes, survival rate; type: cell-based, male Sprague-Dawley rat; set-up: key: ++: The cells survived almost completely at 10^-7 M.; +: The cells survived almost completely at 10^-6 M.; The cells died almost completely at 10 M^-6 M; details: 30 minutes pretreatment, veratrine 100 µg/ml, observed five minutes later
Experimental: as §1

rabbit LDL = test: Inhibitory action on lipid peroxidation in vitro, Method A: oxidation of LDL by soybean lipoxygenase, fluorescence of LDL fraction; type: biochemical; details: fluorescence intensity of oxidized LDL fraction, SLO 40 µg/ml, 37°C, 24 hours
Experimental: A test compound was added to rabbit LDL prepared according to the method of Havel, et al. (Havel RJ et al., J. Clin. Invest., 34, 1345 (1955)), and then a soybean lipoxygenase type-IS (SLO) was added to a final concentration of 40 µg/ml. Oxidation of LDL was carried out at 37°C in a CO2 incubator for 24 hours. The oxidized LDL solution was separated by gel-permeation chromatography, and the fluorescence intensity of the LDL fraction was measured at an excitation wavelength of 360 nm and an emission wavelength of 430 nm.

Male Sprague-Dawley rats = test: Preventive effect on ventricular arrhythmia caused by occlusion and reperfusion of the coronary artery; type: in vivo; details: Fig. 4; 0.5, 1 and 3 mg/kg via femoral vein 10 min before occlusion; compared with diltiazem 1 and 3 mg/kg
Experimental: Male Sprague-Dawley rats (450 - 600 g) were anethetized with pentobarbital, subjected to thoracotomy under artificial respiration, had the arterior descending branch of the left coronary artery occluded with a silk ligature for 5 min, had the occlusion removed to permit reperfusion and examined for 10 min. A standard limb lead II electrocardiogram was recorded to check for the occurrence of ventricular arrythmia. […] The parethesized numeral at the bottom of each bar in Fig. 4 represents the number of cases.

[3] = tested on: Thoracic aorta preparations from rats; test: Vasorelaxing action in vitro: effect on CaCl2-induced contractions; type: cell-based; details: Fig. 1; CaCl2 0.01 - 10 mM in 60 mM K+ PSS; compared with diltiazem
Experimental: Thoracic aorta preparations from rats were stabilized in normal physiological salt solution (PSS) for at least 30 min, contracted with 60 mM KCl and, thereafter, relaxed with normal PSS. Twenty minutes later, the preparations were exposed to Ca^2+ -free 60 mM K^+ PSS (containing 0.1 mM EGTA) for 20 min, then to nominally Ca^2+ -free 60 mM K^+ PSS which is free of EGTA for 20 min, followed by cumulative application of CaCl2 (0.01 - 10 mM) to construct a dose-response curve. […] The response was converted to percent contraction, with the contraction caused by 10 mM CaCl2 being taken as 100%. The data in Fig. 1 are expressed by the mean of 5 cases ± standard error.

[4] = tested on: coronary preparations from dogs; test: Antispasmodic action in vitro: 3,4-diaminopyridine-induced rhythmic contractions; type: cell-based; details: Fig. 2; 3,4-DAP 10 mM; compared with diltiazem
Experimental: Following repeated replacements of PSS in an organ bath at 15-min intervals, the tension on each of the coronary preparations from dogs stabilized at 2 g; then, PSS was replaced by a 30 mM K^+ PSS to contract the preparations. The 30mM K^+ PSS was replaced by normal PSS in an organ bath to relax the preparations, followed by replacements with PSS at 20-min intervals to stabilize the tension for about 1 h, followed by the addition of 3,4-DAP (10 mM) to induce rhythmic contractions. […] The drug concentration allowing for complete suppression of the amplitude of the 3,4-DAP-induced rhythmic contractions may be designated "elimination dose".

IC50 (thoracic aorta; Rattus norvegicus) [nM]	SMILES	IC50 (thoracic aorta) [nM]	Survival Rate of Cells [2]	further results
	CC1SC(c2cc(C(C)(C)C)c(O)c(C(C)(C)C)c2)N(CCCN(C)CCOc2ccc3c(c2)OCO3)C1=O (single isomer, unassigned; (-)) [Compound 75, (-)-2,5-Cis-2-[3,5-di-tert-butyl-4-hydroxyphenyl)-3-[3-[N-methyl-N-[2-(3,4-methylenedioxyphenoxy)ethyl]amino]propyl]-5-methyl-1,3-thiazolidin-4-one]	22		minimal effective concentration [1]: 0.32 µM
	CN(CCCN1C(=O)CSC1c1cc(C(C)(C)C)c(O)c(C(C)(C)C)c1)CCOc1ccc2c(c1)OCO2 (single isomer, unassigned; (+)) [Compound 70, (+)-2-(3,5-Di-tert-butyl-4-hydroxyphenyl)-3-[3-[N-methyl-N-[2-(3,4-methylenedioxyphenoxy)ethyl]amino]propyl]-1,3-thiazolidin-4-one]	300		Percent (%) of Control (rabbit LDL; 5 x 10^-6 M, 5 µM): 5.1%; minimal effective concentration ([1]; Rattus norvegicus, Ventricular myocyte): 0.32 µM
	COc1ccc(CCN(C)CCCN2C(=O)CSC2c2cc(C(C)(C)C)c(O)c(C(C)(C)C)c2)cc1OC (centres unmarked) [Compound 20]		+	Percent (%) of Control (rabbit LDL; 5 x 10^-6 M): 0.6%; Percent (%) of Control (rabbit LDL; 5 x 10^-7 M, 0.5 µM): 8.7%
	CN(CCCN1C(=O)CSC1c1cc(C(C)(C)C)c(O)c(C(C)(C)C)c1)CCOc1ccc2c(c1)OCO2 (centres unmarked) [Compound 26, 2-(3,5-Di-tert-butyl-4-hydroxyphenyl)-3-[3-[N-methyl-N-[2-(3,4-methylenedioxyphenoxy)ethyl]amino]propyl]-1,3-thiazolidin-4-one]	37	++	incidence of arrhythmia (Male Sprague-Dawley rats): by far superior effect to diltiazem in decreasing the incidnece of arrhythmia
	COc1ccc([C@@H]2Sc3ccccc3N(CCN(C)C)C(=O)[C@@H]2OC(C)=O)cc1 [Diltiazem, reference compound]		-	
	CN(CCCN1C(=O)CSC1c1cc(C(C)(C)C)c(O)c(C(C)(C)C)c1)CCOc1ccc2c(c1)OCO2 (single isomer, unassigned; (-)) [Compound 71, (-)-2-(3,5-Di-tert-butyl-4-hydroxyphenyl)-3-[3-[N-methyl-N-[2-(3,4-methylenedioxyphenoxy)ethyl]amino]propyl]-1,3-thiazolidin-4-one]	27		Percent (%) of Control (rabbit LDL; 5 x 10^-6 M, 5 µM): 2.8%; minimal effective concentration [1]: 0.32 µM; inhibitory action against the contraction caused by CaCl2 [3]: need be applied in a by far smaller amount than diltiazem to exhibit an outstanding inhibitory action; suppression of 3,4-DAP-induced rhythmic contractions [4]: capable of suppressing the 3,4-DAP-induced rhythmic contractions at a lower concentration than diltiazem
	CC1SC(c2cc(C(C)(C)C)c(O)c(C(C)(C)C)c2)N(CCCN(C)CCOc2ccc3c(c2)OCO3)C1=O (single isomer, unassigned; (+)) [Compound 74, (+)-2,5-Cis-2-[3,5-di-tert-butyl-4-hydroxyphenyl)-3-[3-[N-methyl-N-[2-(3,4-methylenedioxyphenoxy)ethyl]amino]propyl]-5-methyl-1,3-thiazolidin-4-one]	141		
	CC1SC(c2cc(C(C)(C)C)c(O)c(C(C)(C)C)c2)N(CCCN(C)CCOc2ccc3c(c2)OCO3)C1=O (stereo not drawn) [Compound 73, 2,5-Cis-2-(3,5-di-tert-butyl-4-hydroxyphenyl)-3-[3-[N-methyl-N-[2-(3,4-methylenedioxyphenoxy)ethyl]amino]propyl]-5-methyl-1,3-thiazolidin-4-one]	49		minimal effective concentration [1]: 0.32 µM
23	CN(CCCN1C(=O)C(CCO)SC1c1cc(C(C)(C)C)c(O)c(C(C)(C)C)c1)CCOc1ccc2c(c1)OCO2 (centres unmarked) [Compound 49, 2-(3,5-Di-tert-butyl-4-hydroxyphenyl)-3-[3-[N-methyl-N-[2-(3,4-methylenedioxyphenoxy)ethyl]amino]propyl]-5-(2-hydroxyethyl)-1,3-thiazolidin-4-one]			
170	CC(C)c1cc(C2SCC(=O)N2CCCN(C)CCOc2ccc3c(c2)OCO3)cc(C(C)C)c1O (centres unmarked) [Compound 1, 2-(3,5-Diisopropyl-4-hydroxyphenyl)-3-[3-[N-methyl-N-[2-(3,4-methylenedioxyphenoxy)ethyl]amino]propyl]-1,3-thiazolidin-4-one]			
110	COc1ccc(CN(C)CCCN2C(=O)CSC2c2cc(C(C)(C)C)c(O)c(C(C)(C)C)c2)cc1OC (centres unmarked) [Compound 19]			
21	CN(CCCN1C(=O)C(OCCO)SC1c1cc(C(C)(C)C)c(O)c(C(C)(C)C)c1)CCOc1ccc2c(c1)OCO2 (centres unmarked) [Compound 55]			
28	CN(CCCOc1ccc2c(c1)OCO2)CCCN1C(=O)CSC1c1cc(C(C)(C)C)c(O)c(C(C)(C)C)c1 (centres unmarked) [Compound 17]			Percent (%) of Control (rabbit LDL; 5 x 10^-6 M): 3.9%
21	COc1c(C(C)(C)C)cc(C2SCC(=O)N2CCCN(C)CCOc2ccc3c(c2)OCO3)cc1C(C)(C)C (centres unmarked) [Compound 11]			
	CC1SC(c2cc(C(C)(C)C)c(O)c(C(C)(C)C)c2)N(CCCN(C)CCOc2ccc3c(c2)OCO3)C1=O (centres unmarked) [Compound 41, 2-(3,5-Di-tert-butyl-4-hydroxyphenyl)-3-[3-[N-methyl-N-[2-(3,4-methylenedioxyphenoxy)ethyl]amino]propyl]-5-methyl-1,3-thiazolidin-4-one]	56		Percent (%) of Control (rabbit LDL; 5 x 10^-6 M): 6.2%

SMILES	IC50 (thoracic aorta; Rattus norvegicus) [nM]	IC50 (thoracic aorta) [nM]	Survival Rate of Cells [2]	further results
CN(CCCCN1C(=O)CSC1c1cc(C(C)(C)C)c(O)c(C(C)(C)C)c1)CCOc1ccc2c(c1)OCO2 (centres unmarked) [Compound 8]	170		++	
CC1SC(c2cc(C(C)(C)C)c(O)c(C(C)(C)C)c2)N(CCCN(C)CCOc2ccc3c(c2)OCO3)C1=O (stereo not drawn) [Compound 72, 2,5-Trans-2-(3,5-di-tert-butyl-4-hydroxyphenyl)-3-[3-[N-methyl-[2-(3,4-methylenedioxyphenoxy)ethyl]amino]propyl]-5-methyl-1,3-thiazolidin-4-one]	98			
CN(CCCCCN1C(=O)CSC1c1cc(C(C)(C)C)c(O)c(C(C)(C)C)c1)CCOc1ccc2c(c1)OCO2 (centres unmarked) [Compound 9]	28		++	Percent (%) of Control (rabbit LDL; 5 x 10^-6 M): 5.9%
CCN(CCCN1C(=O)CSC1c1cc(C(C)(C)C)c(O)c(C(C)(C)C)c1)CCOc1ccc2c(c1)OCO2 (centres unmarked) [Compound 12]	63		++	Percent (%) of Control (rabbit LDL; 5 x 10^-6 M): 6.4%
